Legend:
[1] = molecular target: T1, TLR7 (Homo sapiens, UniProt Q9NYK1); test: Human PBMC cell-based assay, TLR7 agonist GS-986 stimulation, cytokine (IL-6 and IFNα) readout; conditions: human PBMCs, GS-986 400 nM, 6 hours; Table 26; read-out: TLR-7 EC50
T1 construct: lymphocytes, monocytes and dendritic cells that express TLR7, TLR8 and TLR9; endogenous in cells; host or cells: human PBMCs from healthy donors
T1 sequence (Q9NYK1 27-1049): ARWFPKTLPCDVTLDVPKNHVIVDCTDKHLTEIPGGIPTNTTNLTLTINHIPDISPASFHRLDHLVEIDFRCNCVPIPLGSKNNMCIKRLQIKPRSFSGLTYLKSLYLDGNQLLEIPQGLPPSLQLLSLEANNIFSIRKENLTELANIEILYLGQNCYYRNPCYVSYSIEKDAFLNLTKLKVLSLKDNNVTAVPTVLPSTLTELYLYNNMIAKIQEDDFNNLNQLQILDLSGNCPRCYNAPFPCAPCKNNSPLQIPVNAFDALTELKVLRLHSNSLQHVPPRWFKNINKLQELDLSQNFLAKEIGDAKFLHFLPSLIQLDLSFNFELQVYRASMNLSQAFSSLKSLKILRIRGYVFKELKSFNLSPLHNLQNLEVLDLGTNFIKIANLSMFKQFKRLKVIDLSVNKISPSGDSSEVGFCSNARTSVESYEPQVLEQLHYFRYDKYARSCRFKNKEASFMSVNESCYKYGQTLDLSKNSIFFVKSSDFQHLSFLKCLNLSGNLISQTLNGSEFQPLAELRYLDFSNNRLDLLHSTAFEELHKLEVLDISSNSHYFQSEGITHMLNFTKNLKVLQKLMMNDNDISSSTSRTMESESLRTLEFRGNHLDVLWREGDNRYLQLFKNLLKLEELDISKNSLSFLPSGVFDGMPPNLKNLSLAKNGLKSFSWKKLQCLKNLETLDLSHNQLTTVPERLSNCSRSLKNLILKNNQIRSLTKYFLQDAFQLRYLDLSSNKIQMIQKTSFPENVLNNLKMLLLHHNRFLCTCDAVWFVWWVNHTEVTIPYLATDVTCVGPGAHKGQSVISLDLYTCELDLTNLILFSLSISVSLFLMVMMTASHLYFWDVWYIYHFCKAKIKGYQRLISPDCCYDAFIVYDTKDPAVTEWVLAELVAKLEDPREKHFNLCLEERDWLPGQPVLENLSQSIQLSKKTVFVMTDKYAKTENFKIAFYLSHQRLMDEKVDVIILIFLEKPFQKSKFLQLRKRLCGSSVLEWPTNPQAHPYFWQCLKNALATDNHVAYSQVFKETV
Text: (§1) Human peripheral blood mononuclear cells (PBMCs) consist of lymphocytes, monocytes and dendritic cells that express TLR7, TLR8 and TLR9. These cells respond to TLR7, TLR8 and TLR9 ligand stimulation and produce cytokines and chemokines in vitro and in vivo. Human PBMCs are therefore suitable to be used in a cell-based assay to assess the in vitro potency of a TLR 7, 8, and/or 9 antagonist. The result is expected to be more translatable to the pharmacodynamics response in vivo than cell line-based assays.
(§2) Cryopreserved human PBMCs from healthy donors were thawed and resuspended in RPMI-1640 media with L-glutamine (Corning) supplemented with 10% Fetal Bovine Serum (Hyclone) and 1X Penicillin-Streptomycin (Corning). After counting, the cell density was adjusted to 2 million cells/ml and incubated for 1 hour at 37° C., 5% CO2 for recovery. Following the recovery, the cells were plated by adding 50p per well (100,000 cells) to 384-well cell culture plates (Greiner) containing 250nl of test antagonists in 100% DMSO per well, in a 10 points dose response in quadruplicates. PBMCs were incubated in the presence of test antagonists for one hour at 37° C., 5% CO2 before being stimulated with a TLR7 or TLR9 agonist. GS-986 (Gilead Sciences) was used as the TLR7 agonist at a final concentration of 400 nM. ODN-2216 (InvivoGen) was used as the TLR9 agonist at a final concentration of 3μM. PBMCs were incubated in the presence of the test antagonist and the TLR7 (or TLR9) agonist for an additional 6 hours at 37° C., 5% CO2. At the end of the incubation, the cell culture plates were centrifuged at 500 g for 5 min, and the cell culture supernatant was collected. The level of cytokines (IL-6 and IFNα) in the supernatant was measured by electrochemiluminescence immunoassays (Mesoscale Discovery) following manufacturer's recommended protocols. The level of cytokine measured was plotted against the test antagonist concentration and fitted to a sigmoidal function to determine the EC50, which are shown below in Table 26.

[2] = molecular target: T2, TLR9 (Homo sapiens, UniProt Q9NR96); test: Human PBMC cell-based assay, TLR9 agonist ODN-2216 stimulation, cytokine (IL-6 and IFNα) readout; conditions: human PBMCs, ODN-2216 3 μM, 6 hours; Table 26; read-out: TLR-9 EC50
T2 construct: lymphocytes, monocytes and dendritic cells that express TLR7, TLR8 and TLR9; endogenous in cells; host or cells: human PBMCs from healthy donors
T2 sequence (Q9NR96 26-1032): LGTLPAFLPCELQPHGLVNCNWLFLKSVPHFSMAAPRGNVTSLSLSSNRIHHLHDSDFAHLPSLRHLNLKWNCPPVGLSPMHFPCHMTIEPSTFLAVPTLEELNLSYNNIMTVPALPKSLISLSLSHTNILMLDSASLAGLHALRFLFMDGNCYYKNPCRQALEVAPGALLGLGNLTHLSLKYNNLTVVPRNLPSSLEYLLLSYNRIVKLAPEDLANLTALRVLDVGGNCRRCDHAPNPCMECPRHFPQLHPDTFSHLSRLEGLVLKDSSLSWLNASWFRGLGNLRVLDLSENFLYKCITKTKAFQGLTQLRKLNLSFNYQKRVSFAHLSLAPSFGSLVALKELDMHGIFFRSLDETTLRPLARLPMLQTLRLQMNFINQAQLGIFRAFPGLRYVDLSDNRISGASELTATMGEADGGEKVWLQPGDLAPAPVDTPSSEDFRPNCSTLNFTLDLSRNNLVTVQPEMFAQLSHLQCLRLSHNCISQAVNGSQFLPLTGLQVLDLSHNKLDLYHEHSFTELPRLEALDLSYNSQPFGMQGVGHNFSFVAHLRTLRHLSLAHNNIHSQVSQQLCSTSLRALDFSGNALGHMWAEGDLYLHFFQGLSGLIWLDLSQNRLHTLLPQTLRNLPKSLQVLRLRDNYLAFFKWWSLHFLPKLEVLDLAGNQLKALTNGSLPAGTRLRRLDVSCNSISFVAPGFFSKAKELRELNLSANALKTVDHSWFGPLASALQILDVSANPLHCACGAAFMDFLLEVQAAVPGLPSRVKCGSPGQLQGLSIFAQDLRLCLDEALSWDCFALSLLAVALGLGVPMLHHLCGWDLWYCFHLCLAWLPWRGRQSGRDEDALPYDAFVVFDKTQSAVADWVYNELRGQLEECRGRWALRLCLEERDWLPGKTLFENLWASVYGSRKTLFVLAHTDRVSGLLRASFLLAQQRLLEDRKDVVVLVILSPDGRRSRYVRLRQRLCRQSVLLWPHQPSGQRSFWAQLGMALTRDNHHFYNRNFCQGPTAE
Text: as §1, §2

SMILES | EC50 [1] | EC50 [2]
Cc1cc(-c2[nH]c3cc(-c4ccnc(N5CCOCC5)c4)ccc3c2C)cc(C)n1 [Example 59, 4-(4-(2-(2,6-dimethylpyridin-4-yl)-3-methyl-1H-indol-6-yl)pyridin-2-yl)morpholine] | 809 nM | 1780 nM
Cc1cc(-c2[nH]c3cc(-c4ccnc(N5CCN(C)CC5)c4)ccc3c2C)cc(C)n1 [Example 60, 2-(2,6-dimethylpyridin-4-yl)-3-methyl-6-(2-(4-methylpiperazin-1-yl)pyridin-4-yl)-1H-indole] | 270 nM | 110 nM
Cc1cc(-c2[nH]c3cc(-c4ccnc(N(C)C)c4)ccc3c2C)cc(C)n1 [Example 61] | 886 nM | 601 nM
Cc1cc(-c2[nH]c3cc(-c4cccc5c4CCNC5)ccc3c2C)cc(C)n1 [Example 62, 5-(2-(2,6-dimethylpyridin-4-yl)-3-methyl-1H-indol-6-yl)-1,2,3,4-tetrahydroisoquinoline] | 607 nM | 180 nM
Cc1cc(-c2[nH]c3cc(-c4ccc(N5CCNCC5)nc4)ccc3c2C2CC2)cc(C)n1 [Example 63, 3-cyclopropyl-2-(2,6-dimethylpyridin-4-yl)-6-(6-(piperazin-1-yl)pyridin-3-yl)-1H-indole] | 4.8 nM | 189 nM
Cc1cc(-c2[nH]c3cc(-c4cnc(N5CCNCC5)nc4)ccc3c2C)cc(C)n1 [Example 65] | 15.3 nM | 63.2 nM
Cc1cc(-c2[nH]c3cc(-c4ccc(N5CCNCC5)cc4)ccc3c2C)cc(C)n1 [Example 66] | 83.2 nM | 51.2 nM
Cc1cc(-c2[nH]c3cc(-c4cnc(N5CCNCC5)nc4)ccc3c2C2CC2)cc(C)n1 [Example 67] | 3 nM | 199 nM
Cc1cc(-c2[nH]c3cc(-c4ccc(S(=O)(=O)N5CCNCC5)cc4)ccc3c2C)cc(C)n1 [Example 68] | 324 nM | 93.2 nM
Cc1cc(-c2[nH]c3cc(-c4cccc(S(=O)(=O)N5CCNCC5)c4)ccc3c2C)cc(C)n1 [Example 69] | 209 nM | 38.4 nM
CCc1c(-c2cc(C)nc(C)c2)[nH]c2cc(-c3ccc(N4CCNCC4)nc3)ccc12 [Example 70, 2-(2,6-dimethylpyridin-4-yl)-3-ethyl-6-(6-(piperazin-1-yl)pyridin-3-yl)-1H-indole] | 6.7 nM | 187 nM
Cc1cc(-c2[nH]c3cc(-c4cn(C5CCNCC5)nn4)ccc3c2C)cc(C)n1 [Example 72, 2-(2,6-dimethylpyridin-4-yl)-3-methyl-6-(1-(piperidin-4-yl)-1H-1,2,3-triazol-4-yl)-1H-indole] | 92 nM | 232 nM
COc1ccc(-c2[nH]c3cc(-c4ccc(N5CCNCC5)nc4)ccc3c2C)cc1OC [Example 81] | 34.4 nM | 758 nM
Cc1c(-c2cnc(C(F)(F)F)nc2)[nH]c2cc(-c3ccc(N4CCNCC4)nc3)ccc12 [Example 83] | 778 nM | 756 nM
Cc1nn(C)cc1-c1[nH]c2cc(-c3ccc(N4CCNCC4)nc3)ccc2c1C [Example 88] | 317 nM | 2190 nM
Cc1c(-c2cnn3c2CCC3)[nH]c2cc(-c3ccc(N4CCNCC4)nc3)ccc12 [Example 89] | > 1000 nM | 428 nM
Cc1cc(-c2[nH]c3cc(-c4ccc(N5CCNCC5)nc4)ccc3c2C)c2ccccc2n1 [Example 90] | 29.8 nM | 753 nM
Cc1c(-c2cn(C)c(=O)n(C)c2=O)[nH]c2cc(-c3ccc(N4CCNCC4)nc3)ccc12 [Example 91] | 104 nM | 540 nM
Cc1c(-c2cn(C)c(=O)c3ccccc23)[nH]c2cc(-c3ccc(N4CCNCC4)nc3)ccc12 [Example 92] | 664 nM | 1680 nM
Cc1c(-c2cc(C#N)c(=O)n(C)c2)[nH]c2cc(-c3ccc(N4CCNCC4)nc3)ccc12 [Example 93] | 205 nM | 909 nM

The remaining lines, values ahead:

EC50 [1] | EC50 [2] | SMILES
33.3 nM | 102 nM | Cc1cc(-c2[nH]c3cc(-c4ccc(N5CCNCC5)nc4)ccc3c2C)ccn1 [Example 73, 3-methyl-2-(2-methylpyridin-4-yl)-6-(6-(piperazin-1-yl)pyridin-3-yl)-1H-indole]
14.3 nM | 1250 nM | Cc1cc(-c2[nH]c3cc(-c4ccc(N5CCNCC5)nc4)ccc3c2C)c(C)cn1 [Example 74]
77.3 nM | 499 nM | Cc1c(-c2ccnc(C#N)c2)[nH]c2cc(-c3ccc(N4CCNCC4)nc3)ccc12 [Example 75]
63 nM | 421 nM | Cc1cc(-c2[nH]c3cc(-c4ccc(N5CCNCC5)nc4)ccc3c2C)cnn1 [Example 76]
10.5 nM | 768 nM | Cc1cc(-c2[nH]c3cc(-c4ccc(N5CCNCC5)nc4)ccc3c2C)cc(C#N)n1 [Example 77]
33.1 nM | 121 nM | Cc1cc(-c2[nH]c3cc(-c4ccc(N5CCNCC5)nc4)ccc3c2C)cc(N)n1 [Example 78]
10.9 nM | 994 nM | COc1cc(-c2[nH]c3cc(-c4ccc(N5CCNCC5)nc4)ccc3c2C)cc(C)n1 [Example 79]
503 nM | 489 nM | Cc1ncc(-c2[nH]c3cc(-c4ccc(N5CCNCC5)nc4)ccc3c2C)cn1 [Example 82]
1990 nM | 964 nM | Cc1cncc(-c2[nH]c3cc(-c4ccc(N5CCNCC5)nc4)ccc3c2C)c1 [Example 84]
2670 nM | 1430 nM | Cc1cncc(-c2[nH]c3cc(-c4ccc(N5CCNCC5)nc4)ccc3c2C)c1C [Example 86]
2180 nM | 583 nM | Cc1c(-c2cnn(C)c2)[nH]c2cc(-c3ccc(N4CCNCC4)nc3)ccc12 [Example 87]
